Reference: patent publication US11661419B2, “Benzimidazole derivative compounds and uses thereof” (Pfizer Inc., priority 2019, dated 2023)

How the values were obtained:
[1] = test system: IL-2 in activated CD4+ human T-cells; test: IL-2 inhibition in supernatants from activated CD4+ human T-cells (cisbio HTRF); type: cell-based; conditions: T-cell; geometric mean of count n; CD3/CD28-expanded human CD4+ T cells stimulated with ImmunoCult, 20 to 24 hrs
Experimental: IL-2-Inhibition Activity, IC50 (uM)
IL-2 inhibition activity in supernatants from activated CD4+ human T-cells was determined by measuring the effect of a test compound on the activity using the cisbio HTRF™ technology.
Human CD4+ T cells were activated with CD3/CD28 for 3 days and expanded for an additional 4-6 days (7 to 9 days total). On day 0, frozen CD4+ T cells were thawed, treated with CD3/CD28 Dynabeads, and incubated at 37° C./5% CO2. On day 3, the beads were removed, and the cells were diluted to 5×10^5 cells/cm^2, placed in G-Rex10 flask, and incubated at 37° C./5% CO2. On day 7 to day 9 the cells were removed from the G-Rex flasks, counted and diluted back to 1×10^6 cells/ml in standard tissue culture flask.
The expanded CD4+ T-cells were centrifuged at 300×g for 10 minutes and resuspended to 0.5 million cells per ml (30,000 cells/well). 60 μl of CD4+ T cells were added per well to a 384 well plate containing 0.1 μL of varying concentrations of test compound in DMSO. The plates were incubated for 15 min at 37° C./5% CO2. 20 μl of diluted ImmunoCult™ ([…] Technologies, 1:12.5 in T cell assay media) were added to all wells of the plate (1:50 final assay concentration). The plates were incubated for an additional 20 to 24 hrs at 37° C./5% CO2. The plates were centrifuged at 300×g for 10 minutes. 16 μL of supernatant was removed and combined with 4 μl of IL-2 HTRF Abs. (cisbio kit). Plates were incubated for 3 hours at RT and read with an EnVision plate reader at 665 nm and 615 nm wavelengths.

[2] = target: Tropomyosin receptor kinase A (TRKA, NTRK1) (Homo sapiens (Human), UniProt P04629); test: TRKA (NTRK1) enzyme Z'-LYTE assay; type: biochemical; conditions: arithmetic mean of count n; test compound 1 uM, ATP 1 mM
Experimental: Tropomyosin Receptor Kinase a (TRKA) Activity, % Inhibition
TRKA, also known as neurotrophic tyrosine kinase receptor type 1 (NTKR1) activity was determined by measuring the effect of a test compound on the activity against the NTRK1 enzyme using the ThermoFisher Z'-LYTE Assay fluorescence-based coupled enzyme format (www.thermofisher.com/selectscreen). […] The resulting effect value for the tested compound was compared to the assay controls to determine the % inhibition (%).

Chain of Tropomyosin receptor kinase A (TRKA, NTRK1) (P04629 33-796): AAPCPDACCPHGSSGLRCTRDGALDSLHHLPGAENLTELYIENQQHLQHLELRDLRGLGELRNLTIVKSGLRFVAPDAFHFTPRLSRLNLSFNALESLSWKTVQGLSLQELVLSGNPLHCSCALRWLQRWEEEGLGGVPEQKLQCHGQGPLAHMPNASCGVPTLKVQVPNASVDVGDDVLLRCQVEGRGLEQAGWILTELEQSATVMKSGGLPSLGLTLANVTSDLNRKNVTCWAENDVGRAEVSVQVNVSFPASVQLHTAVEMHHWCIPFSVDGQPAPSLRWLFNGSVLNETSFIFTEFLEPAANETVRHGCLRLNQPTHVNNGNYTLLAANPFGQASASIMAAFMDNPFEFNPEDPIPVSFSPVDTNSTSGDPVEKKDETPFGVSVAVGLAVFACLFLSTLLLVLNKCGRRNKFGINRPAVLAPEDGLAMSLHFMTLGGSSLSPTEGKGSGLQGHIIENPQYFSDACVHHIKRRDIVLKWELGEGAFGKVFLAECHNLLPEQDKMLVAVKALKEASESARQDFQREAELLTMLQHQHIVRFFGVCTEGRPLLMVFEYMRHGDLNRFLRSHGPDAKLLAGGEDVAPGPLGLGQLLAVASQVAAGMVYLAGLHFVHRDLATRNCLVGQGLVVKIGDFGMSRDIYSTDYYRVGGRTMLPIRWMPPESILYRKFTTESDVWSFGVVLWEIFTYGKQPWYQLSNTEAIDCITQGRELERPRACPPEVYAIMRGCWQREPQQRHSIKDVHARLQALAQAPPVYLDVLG

Row | SMILES | IC50 [1] | inhibition at 1 µM [2]
1 | C[C@@H](C(=O)N(C)c1cc2nc(-c3n[nH]c4c3C[C@@H]3C[C@]3(C)C4)[nH]c2c(F)c1F)N1CCOCC1 [Example 24, (S)—N-(6,7-difluoro-2-((4aS,5aR)-5a-methyl-1,4,4a,5,5a,6-hexahydrocyclopropa[f]indazol-3-yl)-1H-benzo[d]imidazol-5-yl)-N-methyl-2-morpholinopropanamide] | 106 nM | 105%
2 | CCN(C(=O)[C@H](C)N1CCOCC1)c1cc2nc(-c3n[nH]c4c3C[C@@H]3C[C@]3(C)C4)[nH]c2c(F)c1F [Example 25, (S)—N-(6,7-difluoro-2-((4aS,5aR)-5a-methyl-1,4,4a,5,5a,6-hexahydrocyclopropa[f]indazol-3-yl)-1H-benzo[d]imidazol-5-yl)-N-ethyl-2-morpholinopropanamide] | 101 nM | 101%
3 | Cc1cc2[nH]c(-c3n[nH]c4c3C[C@@H]3C[C@]3(C)C4)nc2cc1N(C)C(=O)CN1CCO[C@H](CO)C1 [Example 26, 2-((S)-2-(hydroxymethyl)morpholino)-N-methyl-N-(6-methyl-2-((4aS,5aR)-5a-methyl-1,4,4a,5,5a,6-hexahydrocyclopropa[f]indazol-3-yl)-1H-benzo[d]imidazol-5-yl)acetamide] | 212 nM | 99%
4 | Cc1cc2[nH]c(-c3n[nH]c4c3C[C@@H]3C[C@]3(C)C4)nc2cc1N(C)C(=O)CN1CCO[C@@H](C)C1 [Example 31, N-Methyl-N-(6-methyl-2-((4aS,5aR)-5a-methyl-1,4,4a,5,5a,6-hexahydrocyclopropa[f]indazol-3-yl)-1H-benzo[d]imidazol-5-yl)-2-((S)-2-methylmorpholino)acetamide] | 75 nM | 99%
5 | Cc1cc2[nH]c(-c3n[nH]c4c3C[C@@H]3C[C@]3(C)C4)nc2cc1N(C)C(=O)CN1C[C@@H](C)O[C@H](C)C1 [Example 32, 2-((2R,6R)-2,6-Dimethylmorpholino)-N-methyl-N-(6-methyl-2-((4aS,5aR)-5a-methyl-1,4,4a,5,5a,6-hexahydrocyclopropa[f]indazol-3-yl)-1H-benzo[d]imidazol-5-yl)acetamide] | 83 nM | 99%
6 | Cc1cc2[nH]c(-c3n[nH]c4c3C[C@@H]3C[C@]3(C)C4)nc2cc1N(C)C(=O)CN1CCOCC1 [Example 34, N-Methyl-N-(6-methyl-2-((4aS,5aR)-5a-methyl-1,4,4a,5,5a,6-hexahydrocyclopropa[f]indazol-3-yl)-1H-benzo[d]imidazol-5-yl)-2-morpholinoacetamide] | 103 nM | 98%
7 | C[C@@H](C(=O)N(C)c1cc(Br)c2[nH]c(-c3n[nH]c4c3C[C@@H]3C[C@]3(C)C4)nc2c1)N1CCOCC1 [Example 37, (S)—N-(7-bromo-2-((4aS,5aR)-5a-methyl-1,4,4a,5,5a,6-hexahydrocyclopropa[f]indazol-3-yl)-1H-benzo[d]imidazol-5-yl)-N-methyl-2-morpholinopropanamide] | 130 nM | 96%
8 | C[C@@H](C(=O)N(C)c1cc(C#N)c2[nH]c(-c3n[nH]c4c3C[C@@H]3C[C@]3(C)C4)nc2c1)N1CCOCC1 [Example 38, (S)—N-(7-cyano-2-((4aS,5aR)-5a-methyl-1,4,4a,5,5a,6-hexahydrocyclopropa[f]indazol-3-yl)-1H-benzo[d]imidazol-5-yl)-N-methyl-2-morpholinopropanamide] | 85 nM | 96%
9 | COc1cc(N(C)C(=O)[C@H](C)N2CCOCC2)cc2nc(-c3n[nH]c4c3C[C@@H]3C[C@]3(C)C4)[nH]c12 [Example 40, (S)—N-(7-methoxy-2-((4aS,5aR)-5a-methyl-1,4,4a,5,5a,6-hexahydrocyclopropa[f]indazol-3-yl)-1H-benzo[d]imidazol-5-yl)-N-methyl-2-morpholinopropanamide] | 103 nM | 96%
10 | C[C@@H](C(=O)N(C)c1cc(C(F)(F)F)c2[nH]c(-c3n[nH]c4c3C[C@@H]3C[C@]3(C)C4)nc2c1)N1CCOCC1 [Example 41, (S)—N-methyl-N-(2-((4aS,5aR)-5a-methyl-1,4,4a,5,5a,6-hexahydrocyclopropa[f]indazol-3-yl)-7-(trifluoromethyl)-1H-benzo[d]imidazol-5-yl)-2-morpholinopropanamide] | 176 nM | 96%
11 | COCc1cc(N(C)C(=O)[C@H](C)N2CCOCC2)cc2nc(-c3n[nH]c4c3C[C@@H]3C[C@]3(C)C4)[nH]c12 [Example 42, (S)—N-(7-(methoxymethyl)-2-((4aS,5aR)-5a-methyl-1,4,4a,5,5a,6-hexahydrocyclopropa[f]indazol-3-yl)-1H-benzo[d]imidazol-5-yl)-N-methyl-2-morpholinopropanamide] | 200 nM | 98%
12 | C[C@@H](C(=O)N(C)c1cc(Cl)c2[nH]c(-c3n[nH]c4c3C[C@@H]3C[C@]3(C)C4)nc2c1)N1CCOCC1 [Example 43, (S)—N-(7-chloro-2-((4aS,5aR)-5a-methyl-1,4,4a,5,5a,6-hexahydrocyclopropa[f]indazol-3-yl)-1H-benzo[d]imidazol-5-yl)-N-methyl-2-morpholinopropanamide] | 171 nM | 96%
13 | CCc1cc(N(C)C(=O)[C@H](C)N2CCOCC2)cc2nc(-c3n[nH]c4c3C[C@@H]3C[C@]3(C)C4)[nH]c12 [Example 44, (S)—N-(7-ethyl-2-((4aS,5aR)-5a-methyl-1,4,4a,5,5a,6-hexahydrocyclopropa[f]indazol-3-yl)-1H-benzo[d]imidazol-5-yl)-N-methyl-2-morpholinopropanamide] | 219 nM | 94%
14 | C[C@@H](C(=O)N(C)c1cc(CO)c2[nH]c(-c3n[nH]c4c3C[C@@H]3C[C@]3(C)C4)nc2c1)N1CCOCC1 [Example 45, (S)—N-(7-(hydroxymethyl)-2-((4aS,5aR)-5a-methyl-1,4,4a,5,5a,6-hexahydrocyclopropa[f]indazol-3-yl)-1H-benzo[d]imidazol-5-yl)-N-methyl-2-morpholinopropanamide] | 365 nM | 97%
15 | Cc1c(F)c(N(C)C(=O)[C@H](C)N2CCOCC2)cc2nc(-c3n[nH]c4c3C[C@@H]3C[C@]3(C)C4)[nH]c12 [Example 47, (S)—N-(6-fluoro-7-methyl-2-((4aS,5aR)-5a-methyl-1,4,4a,5,5a,6-hexahydrocyclopropa[f]indazol-3-yl)-1H-benzo[d]imidazol-5-yl)-N-methyl-2-morpholinopropanamide] | 161 nM | 98%
16 | C[C@@H](C(=O)N(C)c1cc(C(F)F)c2[nH]c(-c3n[nH]c4c3C[C@@H]3C[C@]3(C)C4)nc2c1)N1CCOCC1 [Example 48, (S)—N-(7-(difluoromethyl)-2-((4aS,5aR)-5a-methyl-1,4,4a,5,5a,6-hexahydrocyclopropa[f]indazol-3-yl)-1H-benzo[d]imidazol-5-yl)-N-methyl-2-morpholinopropanamide] | 207 nM | 95%
17 | COCCOc1cc2[nH]c(-c3n[nH]c4c3C[C@@H]3C[C@]3(C)C4)nc2cc1N(C)C(=O)[C@H](C)N1CCOCC1 [Example 49, (S)—N-(6-(2-methoxyethoxy)-2-((4aS,5aR)-5a-methyl-1,4,4a,5,5a,6-hexahydrocyclopropa[f]indazol-3-yl)-1H-benzo[d]imidazol-5-yl)-N-methyl-2-morpholinopropanamide] | 100 nM | 98%
18 | Cc1cc(N(C)C(=O)[C@H](C)N2CCOCC2)cc2nc(-c3n[nH]c4c3C[C@@H]3C[C@]3(C)C4)[nH]c12 [Example 50, (S)—N-methyl-N-(7-methyl-2-((4aS,5aR)-5a-methyl-1,4,4a,5,5a,6-hexahydrocyclopropa[f]indazol-3-yl)-1H-benzo[d]imidazol-5-yl)-2-morpholinopropanamide] | 126 nM | 97%
19 | Cc1cc(N(C)C(=O)[C@H](C)N2CCOCC2)cc2nc(-c3n[nH]c4c3C[C@@H]3C(F)(F)[C@]3(C)C4)[nH]c12 [Example 51, (S)—N-(2-((4aS,5aR)-5,5-difluoro-5a-methyl-1,4,4a,5,5a,6-hexahydrocyclopropa[f]indazol-3-yl)-7-methyl-1H-benzo[d]imidazol-5-yl)-N-methyl-2-morpholinopropanamide] | 19 nM | 97%
20 | Cc1cc2[nH]c(-c3n[nH]c4c3C[C@@H]3C[C@]3(C)C4)nc2cc1NC(=O)[C@H](C)N1CCOCC1 [Example 52, (S)—N-(6-methyl-2-((4aS,5aR)-5a-methyl-1,4,4a,5,5a,6-hexahydrocyclopropa[f]indazol-3-yl)-1H-benzo[d]imidazol-5-yl)-2-morpholinopropanamide] | 274 nM | 109%
